{
  "source": "patent US12194021B2",
  "about": "“Modified herbal compositions for neuromodulation” (University of Southern California, priority 2021, dated 2025)",
  "format_in_all_cases": "in vivo",
  "key": {"[1]": {"test": "Six-month long-term toxicity evaluation (metabolic rate)", "details": "male Sprague Dawley rats, gavage 1, 10 and 500 mg/kg daily, six months", "procedure": "To evaluate D-P's safety, we tested dosages of 1, 10, and 500 mg/kg (500 time high concentration) of D-P in rats. Sprague Dawley rats, male, body weight starting at 175±5 g, were used in this study. Control group rats were gavaged SUC 20 ml/kg, and D-P group rats were gavaged 1, 10, and 500 mg/kg D-P every day for six months."}, "TG-mice [2]": {"test_system": "TG-mice", "test": "Elevated plus maze (EPM), anxiety in TG-mice", "details": "2 mg/kg, 3 months", "from_the_text": "2) Whole-Cell Patch-Clamp Recordings from Brain Slices. Transverse slices (400 lm) of dorsal hippocampus were obtained from wt and TG-SwDI mice (male, 20 months old) using a vibratome (VT 100; Technical Products International). Slices were perfused continuously with artificial CSF (ACSF) composed of the following (in mM): 125 NaCl, 2.5 KCl, 2 CaCl2, 2 MgCl2, 26 NaHCO3, and 10 D-glucose. The ACSF was bubbled continuously with 95% O2/5% CO2 to ensure adequate oxygenation of slices and a pH of 7.4 and kept at 34±0.5° C. for perfusion. TTX (0.5 μM), APV (40 μM), CNQX (10 μM), and CGP54626 (1 μM, GABABR antagonist) were added to ACSF to pharmacologically isolate GABAAR-mediated mIPSCs. […] Animals were placed on the central area of the maze, tested for 5 min and video recorded. The following measures were scored: number of entries into open arms, closed arms, or center platform and time spent in each of these areas. […]\n6) The elevated plus maze assay (EPM) was performed in a quiet and dark room with only a low power red light. […] were placed on the central area of the maze, and their behavior video recorded for 5 min. The number of entries into open arms, closed arms, or center platform and time spent in each of these areas were scored during off-line analysis. […]\nLocomotor activity was assayed with open field test. Running distance is one of the parameters quantifying locomotor activity (FIG. 4A). […]"}, "TG-mice [3]": {"test_system": "TG-mice", "test": "Novel context recognition (NCR)", "details": "1 mg/kg oral, 3 months, untreated TG 49.2±2.6%", "procedure": "Novel context recognition (NCR): Day 1-3 was Habituation (once/day). Two contexts (containers) A and B with similar field area were very different in shape. Context A was a rectangular, Context B was a circular container. The containers were open at the top with bedding to minimize stress and with video camera on top to record animal behavior. Each animal was placed in Context A without toys for 5 min, then back to home cage for 30 min. Then the animal was placed in Context B without toys for 5 min.\nDay 4 was for Familiarization: Two different sets of toys were used as the familiar objects referred to as FO1 and FO2 respectively. […]\nDay 5 (24 h from familiarization): Retention Trials was performed to determine the memory retention of each animal for familiarized objects. […] The test was videotaped and analyzed offline. The time spent exploring the familiar object (FO1) and exchanged object (FO2) were calculated where exploration equals touching the object with nose or paws or sniffing within 1.5 cm of the object. […]\nMice were divided into four groups: (1) C57BL/6 wt male mice were treated with oral administration of 2% sucrose; (2) C57B1/6 wt male mice with oral administration of 1 mg/kg D-P in 2% sucrose; (3) TG-mice with oral administration of 2% sucrose; and (4) TG-mice with 1 mg/kg D-P in 2% sucrose. […] Next, we evaluated NCR (FIG. 3C). The RI was calculated."}},
  "data": [
    {"substance": "piperidin-1-ium (2R,3R)-2-(3,4-dihydroxy-5-oxidophenyl)-3,5-dihydroxy-4-oxochroman-7-olate [D-P]", "values": [
      {"measurement": "metabolic rate", "setting": "[1]", "value": "did not alter the metabolic rate"},
      {"measurement": "time in open and closed arms (EPM)", "setting": "TG-mice [2]", "value": "spent a similar amount of time in each arm"},
      {"measurement": "Recognition Index (RI), novel context", "setting": "TG-mice [3]", "value": "reversed the RI in TG-mice"}
    ]}
  ]
}
